Laboratory results: ChEMBL document CHEMBL5096141, “Protease targeted COVID-19 drug discovery and its challenges: Insight into viral main protease (Mpro) and papain-like protease (PLpro) inhibitors” (Bioorg Med Chem, 2021)

Experiments:
[1] = Inhibition of SARS-CoV PLpro expressed in Escherichia coli; parameters: species or system Severe acute respiratory syndrome-related coronavirus
[2] = target: T1, Replicase polyprotein 1ab (Severe acute respiratory syndrome coronavirus 2, UniProt P0DTD1); experiment: Inhibition of SARS-CoV-2 PLpro expressed in Escherichia coli
[3] = target: T1, Replicase polyprotein 1ab; experiment: Inhibition of SARS-CoV-2 MPro
[4] = target: T1, Replicase polyprotein 1ab; experiment: Inhibition of recombinant SARS-CoV-2 MPro incubated for 10 mins in presence of fluorogenic substrate
[5] = Inhibition of recombinant SARS-CoV MPro; parameters: species or system Severe acute respiratory syndrome-related coronavirus
[6] = Inhibition of recombinant MERS-CoV MPro; parameters: species or system Middle East respiratory syndrome-related coronavirus

| SMILES | IC50 [1] | IC50 [3] | other results |
| --- | --- | --- | --- |
| COc1ccc(CNC(=O)C2CCN(Cc3cccc4ccccc34)CC2)cc1 | 59 µM | – | – |
| CC(=O)Nc1ccc(C)c(C(=O)N[C@@H](C)c2cccc3ccccc23)c1 | 2.6 µM | – | IC50 [2]: 5 µM |
| O=C[C@@H](C[C@@H]1CCNC1=O)NC(=O)[C@@H](Cc1cccc(F)c1)NC(=O)c1cc2ccccc2[nH]1 | – | 0.04 µM | IC50 [4]: 0.04 µM |
| Cc1ccc(N)cc1C(=O)N[C@@H](C)c1cccc2ccccc12 | 0.6 µM | – | – |
| CC(C)(C)OC(=O)Nc1cccn([C@H](CC2CC2)C(=O)N[C@H](C[C@@H]2CCNC2=O)C(=O)C(=O)NCc2ccccc2)c1=O | – | – | IC50 [5]: 0.9 µM; IC50 [6]: 0.58 µM |
| Cc1ccccc1C(=O)NC(C)c1ccc2ccccc2c1 (stereo unspecified) | 20 µM | – | – |
| CN(C)C(=O)COC(=O)Cc1ccc(OC(=O)c2ccc(NC(=N)N)cc2)cc1 [CAMOSTAT] | – | > 20 µM | – |
| Cc1cccc(C)c1OCC(=O)N[C@@H](Cc1ccccc1)[C@@H](O)C[C@H](Cc1ccccc1)NC(=O)[C@H](C(C)C)N1CCCNC1=O [LOPINAVIR] | – | > 20 µM | – |
